# “And” between values parts separate entries of the source, which are not always exact repeats. Equal values may be shown once.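 Each compound was tested at five concentrations against cells in 96-well plates for 48 hours. GI50 = concentration required for 50% inhibition of growth. TGI denotes the concentration required for complete inhibition of growth.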
# Tests used:
# Test in all cases: inhibition of tumour cell growth, NCI panel, 48 h
# KM12 colon = test system: KM12 colon
# CCRF-CEM leukemia = test system: CCRF-CEM leukemia
# NCI-H23 lung = test system: NCI-H23 lung
# TK-10 renal = test system: TK-10 renal
# HT29 colon = test system: HT29 colon
# RXF 393 renal = test system: RXF 393 renal
# SK-MEL-5 melanoma = test system: SK-MEL-5 melanoma
# OVCAR-5 ovarian = test system: OVCAR-5 ovarian
# SK-MEL-2 melanoma = test system: SK-MEL-2 melanoma
# SR leukemia = test system: SR leukemia
# K-562 leukemia = test system: K-562 leukemia
SMILES,TGI (KM12 colon),TGI (CCRF-CEM leukemia) [µM],TGI (NCI-H23 lung),TGI (TK-10 renal) [µM],TGI (HT29 colon),TGI (RXF 393 renal),TGI (SK-MEL-5 melanoma),TGI (OVCAR-5 ovarian),TGI (SK-MEL-2 melanoma) [µM],TGI (SR leukemia) [µM],TGI (K-562 leukemia),GI50 (KM12 colon) [µM],GI50 (CCRF-CEM leukemia) [µM],GI50 (NCI-H23 lung) [µM],GI50 (HT29 colon) [µM],GI50 (RXF 393 renal),GI50 (SK-MEL-5 melanoma) [µM],GI50 (OVCAR-5 ovarian) [µM],GI50 (K-562 leukemia) [µM]
C=CC(Br)(CBr)CCC(Br)C(C)C (configuration not stated),4.83 µM,3.46,20.8 µM,10.4,8.4 µM,20.3 µM,17.7 µM,29.6 µM,12.8,3.99,6.94 µM,–,–,–,–,–,–,–,–
CN1C(=O)N(C)C2(CCN(CCCCCCF)CC2)C1=O,> 100 µM,> 100,> 100 µM,> 100,> 100 µM,> 100 µM,> 100 µM,> 100 µM,–,> 100,> 100 µM,–,–,–,–,–,–,–,–
O=C1c2cc([N+](=O)[O-])sc2C(=O)c2ccsc21,1.77 µM,0.227,1.15 µM,1.99,1.48 µM,1.05 µM,0.336 µM,3.22 µM,3.11,< 0.0235,0.191 µM,–,–,–,–,–,–,–,–
Cc1sc2nc3n(c(=O)c2c1C)N=C(c1ccc([N+](=O)[O-])cc1)CS3,> 100 µM,> 100,> 100 µM,–,> 100 µM,> 100 µM,> 100 µM,> 100 µM,–,> 100,> 100 µM,–,–,–,–,–,–,–,–
CCN(CC)CCNc1ccc2ncn3c4cc(=O)ccc4c(O)c1c23,22.1 µM,16.8,14.6 µM,47.1,11.5 µM,3.68 µM,12.1 µM,32.5 µM,21.7,9.75,30 µM,–,–,–,–,–,–,–,–
COCCNC1CCC2(SCCS2)c2[nH]c3ccccc3c21 (configuration not stated),40.5 µM,88.3,> 100 µM,44.6,> 100 µM,40.4 µM,57.4 µM,> 100 µM,> 100,69.9,> 100 µM,–,–,–,–,–,–,–,–
O=C1N[C@@H](COc2ccc(C=Nc3ccc(CCc4ccc(N=Cc5ccc(OC[C@@H]6COC(=O)N6)cc5)cc4)cc3)cc2)CO1,> 100 µM,–,–,> 100,> 100 µM,> 100 µM,> 100 µM,> 100 µM,> 100,> 100,> 100 µM,–,–,–,–,–,–,–,–
CCCCNC(=S)Nc1nc(C(=O)NNC(=O)c2ccccc2)cs1,36.9 µM,> 100,–,60.6,> 100 µM,–,22.7 µM,35 µM,35.9,> 100,> 100 µM,–,–,–,–,–,–,–,–
CC(=O)OCC1OC(N2C(S)=C(C#N)C(c3ccco3)C(C(C)=O)=C2c2ccccc2)C(OC(C)=O)C(OC(C)=O)C1OC(C)=O (configuration not stated),> 100 µM,> 100,> 100 µM,> 100,> 100 µM,> 100 µM,> 100 µM,> 100 µM,> 100,> 100,> 100 µM,–,–,–,–,–,–,–,–
CC1CC[C@@]2(OC1)OC1C[C@H]3[C@@H]4CCC5CC(O)CC[C@]5(C)[C@H]4C/C(=N\N(C)C)[C@]3(C)C1[C@@H]2C (some centres not stated),85.2 µM,> 100,42.6 µM,86.9,39.9 µM,37.7 µM,53.3 µM,62.2 µM,45.6,60.6,> 100 µM,–,–,–,–,–,–,–,–
Cc1cccc(NC2=NCCO2)c1Cl,> 100 µM,> 100,> 100 µM,> 100,> 100 µM,> 100 µM,> 100 µM,> 100 µM,–,> 100,> 100 µM,–,–,–,–,–,–,–,–
C#CCCCC(=O)N(C(=O)CS(=O)CC)c1ccccc1 (configuration not stated),> 100 µM,> 100,> 100 µM,> 100,> 100 µM,> 100 µM,> 100 µM,> 100 µM,> 100,> 100,> 100 µM,–,–,–,–,–,–,–,–
O=C(Oc1cccc(Cl)c1)c1cc2cc(CCl)ccc2oc1=O,> 100 µM,–,> 100 µM,> 100,> 100 µM,62.7 µM,33.2 µM,> 100 µM,28.9,> 100,> 100 µM,–,–,–,–,–,–,–,–
c1ccc(CCn2cncn2)cc1,> 100 µM,> 100,> 100 µM,> 100,> 100 µM,–,> 100 µM,> 100 µM,–,> 100,> 100 µM,–,–,–,–,–,–,–,–
C=CCC(CNC(=O)OCc1ccccc1)OC(=O)OCc1ccccc1 (configuration not stated),> 100 µM,> 100,> 100 µM,> 100,> 100 µM,> 100 µM,56 µM,> 100 µM,> 100,62,> 100 µM,–,–,–,–,–,–,–,–
CC1(C)CC2C(C1=O)C1(C)CCCC2(C)C1=O (configuration not stated),> 100 µM,> 100,> 100 µM,> 100,> 100 µM,–,> 100 µM,> 100 µM,> 100,> 100,> 100 µM,–,–,–,–,–,–,–,–

SMILES,TGI (KM12 colon),TGI (CCRF-CEM leukemia) [µM],TGI (NCI-H23 lung),TGI (TK-10 renal) [µM],TGI (HT29 colon),TGI (RXF 393 renal),TGI (SK-MEL-5 melanoma),TGI (OVCAR-5 ovarian),TGI (SK-MEL-2 melanoma) [µM],TGI (SR leukemia) [µM],TGI (K-562 leukemia),GI50 (KM12 colon) [µM],GI50 (CCRF-CEM leukemia) [µM],GI50 (NCI-H23 lung) [µM],GI50 (HT29 colon) [µM],GI50 (RXF 393 renal),GI50 (SK-MEL-5 melanoma) [µM],GI50 (OVCAR-5 ovarian) [µM],GI50 (K-562 leukemia) [µM]
CSC1=C(C(=O)Nc2ccccc2)C(N)=NC1=O,> 100 µM,> 100,> 100 µM,> 100,> 100 µM,> 100 µM,> 100 µM,–,> 100,> 100,> 100 µM,–,–,–,–,–,–,–,–
NC(N)=NCC(N)C(=O)O (configuration not stated),> 100 µM,–,> 100 µM,> 100,> 100 µM,> 100 µM,> 100 µM,> 100 µM,> 100,> 100,> 100 µM,–,–,–,–,–,–,–,–
CC1(C)C2CCC(N)(C2)C1O (configuration not stated),> 100 µM,> 100,> 100 µM,> 100,–,> 100 µM,> 100 µM,> 100 µM,> 100,> 100,> 100 µM,–,–,–,–,–,–,–,–
CC1(C)c2ccccc2C(O)C12CCC(=O)CC2 (configuration not stated),> 100 µM,–,> 100 µM,> 100,> 100 µM,30.8 µM,> 100 µM,> 100 µM,> 100,> 100,> 100 µM,–,–,–,–,–,–,–,–
CCN(CC)CCC(=O)c1ccc(Oc2ccc(F)cc2)cc1,36.6 µM,50.1,45.9 µM,31.7,38.6 µM,30.5 µM,–,35 µM,> 100,> 100,> 100 µM,–,–,–,–,–,–,–,–
CC1(C)CC[C@]2(C(=O)O)[C@H](O)C[C@]3(C)C(=CC[C@@H]4[C@@]5(C)CC[C@H](OC6OC(C(=O)O)C(O)C(O)C6O)C(C)(C)[C@@H]5CC[C@]43C)[C@@H]2C1 (some centres not stated),> 100 µM,> 100,> 100 µM,–,> 100 µM,81.6 µM,> 100 µM,> 100 µM,> 100,46.7,> 100 µM,–,–,–,–,–,–,–,–
C[N+](C)(N)c1nc(N)c(C#N)c(C#N)c1C#N,–,> 10,> 10 µM,> 10,> 10 µM,> 10 µM,> 10 µM,> 10 µM,> 10,> 10,> 10 µM,–,–,–,–,–,–,–,–
C#CCOC(=O)C(N)CCSC (configuration not stated),> 100 µM,> 100,> 100 µM,> 100,> 100 µM,> 100 µM,> 100 µM,> 100 µM,> 100,> 100,–,–,–,–,–,–,–,–,–
CC(=O)C1(O)Cc2c(O)c3c(c(O)c2C(OC2CC(N)C(O)C(C)O2)C1)C(=O)c1ccccc1C3=O (configuration not stated),0.713 µM and 0.227 µM,–,0.12 µM and 0.046 µM,0.158,0.432 µM and 0.234 µM,0.553 µM and 0.0785 µM,0.33 µM and 0.0697 µM,0.842 µM and 0.23 µM,–,0.0813,0.78 µM and 0.716 µM,0.0167,0.00214,< 0.012,0.0117,0.15 µM and 0.0166 µM,< 0.0119,0.0261,< 0.0109
COc1cc2c(c(OC)c1OC)-c1ccc(SC)cc1C(=O)CC2,–,> 100,> 100 µM,> 100,< 0.01 µM,> 100 µM,> 100 µM,> 100 µM,> 100,> 100,–,–,–,–,–,–,–,–,–
COc1ccccc1NCC(=O)Nn1c(C)nc2ccc(S(=O)(=O)Nc3ccccc3OC)cc2c1=O,> 100 µM,> 100,> 100 µM,> 100,> 100 µM,–,–,> 100 µM,> 100,> 100,> 100 µM,–,–,–,–,–,–,–,–
CC(/C=N/NC1=NCCCN1)=N\NC1=NCCCN1,> 100 µM,> 100,> 100 µM,> 100,> 100 µM,> 100 µM,> 100 µM,> 100 µM,–,> 100,> 100 µM,–,–,–,–,–,–,–,–
COc1ccccc1NS(=O)(=O)c1ccc2ncn(NS(=O)(=O)c3ccc(Cl)cc3)c(=O)c2c1,> 100 µM,> 100,> 100 µM,> 100,> 100 µM,–,–,> 100 µM,> 100,> 100,> 100 µM,–,–,–,–,–,–,–,–
CN(C)c1ccc(/C=c2/c3cc([N+](=O)[O-])ccc3n3c2cc(-c2ccccc2)[n+]3C)cc1,2.59 µM,5.57,> 24.2 µM,9.32,6.76 µM,–,1.11 µM,10.8 µM,1.68,3.02,7.42 µM,–,–,–,–,–,–,–,–
CC(C)c1cccc(C(C)C)c1OS(=O)(=O)NC(=O)OC(C(F)(F)F)C(F)(F)F,> 100 µM,> 100,> 100 µM,> 100,–,–,> 100 µM,> 100 µM,> 100,> 100,66.6 µM,–,–,–,–,–,–,–,–

# Reference: PubChem BioAssay (NCI)
